Assay: Approximate solubility at ambient temperature
Type: physicochemical
Method: Approximate solubility values were measured for the as-received material at ambient temperature. […] The approximate solubility values were considered in the design of form screen experiments.

approximate solubility (MTBE, toluene, water, and select solvent mixtures): Limited to intermediate solubility
approximate solubility (heptane): low solubility
approximate solubility (most of the organic solvents tested): high solubility
Structure (SMILES): CC(C)n1nccc1-c1ncccc1CO [compound (3)]

Reference: US20220324833A1, “PROCESS FOR PREPARATION OF 2-HYDROXY-6-((2-(1-ISOPROPYL-1H-PYRAZOL-5-YL)PYRIDIN-3-YL)METHOXY)BENZALDEHYDE” (Global Blood Therapeutics, Inc., priority 2020, published 2022)
